{"source": "patent US12589143B2", "about": "“Human anti-PD-L1 peptide vaccines and methods of their use” (priority 2019, dated 2026)", "tested_on": "MVF-PD-L1 peptide immunogen", "assay": "Immunogenicity in Balb/c mice, experiment 1 (CT26 WT): ELISA of sera vs each MVF-PD-L1 peptide immunogen", "type": "in vivo", "conditions": "for Immunogenicity (titers) 1′ Conc. 1:: Balb/c mice", "in_short": "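Female Balb/c mice aged 6–8 weeks received 100 μg of each MVF-PD-L1 peptide in Montanide ISA 720 with nor-MDP three times at 3-week intervals. Weekly sera were titered by ELISA against each immunogen on 200 ng/well peptide. Titer was the highest dilution giving absorbance 0.2 after blank subtraction.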", "note": "Where “and” joins values, the source holds several entries; their conditions need not be identical. Identical values can stand only once. Where no end group is shown, it is not given here."}
{"sequence": "KLLSLIKGVIVHRLEGVEGPSLLIVYWEMEDKNIIQFVHG (KLLSLIKGVIVHRLEGVEGPSLLIVYWEMEDKNIIQFVHG-NH2) [PD-L1(36)]", "values": [{"measurement": "Immunogenicity (titers) 1′ Conc. 1:", "setting": "bleed 1Y + 3", "value": 400}, {"measurement": "Immunogenicity (titers) 1′ Conc. 1:", "setting": "bleed 2Y + 1", "value": 1600}, {"measurement": "Immunogenicity (titers) 1′ Conc. 1:", "setting": "bleed 2Y + 2", "value": 6400}, {"measurement": "Immunogenicity (titers) 1′ Conc. 1:", "setting": "bleed 2Y + 3", "value": 16000}, {"measurement": "Immunogenicity (titers) 1′ Conc. 1:", "setting": "bleed 3Y + 1", "value": 16000}, {"measurement": "Immunogenicity (titers) 1′ Conc. 1:", "setting": "bleed 3Y + 2", "value": 16000}, {"measurement": "Immunogenicity (titers) 1′ Conc. 1:", "setting": "bleed 3Y + 3", "value": 16000}, {"measurement": "ELISA absorbance of sera", "setting": "bleed 1Y + 3 (1to100), dilution 100", "value": "0.598 and 0.583"}, {"measurement": "ELISA absorbance of sera", "setting": "bleed 1Y + 3 (1to100), dilution 200", "value": "0.352 and 0.300"}, {"measurement": "ELISA absorbance of sera", "setting": "bleed 1Y + 3 (1to100), dilution 400", "value": "0.212 and 0.200"}, {"measurement": "ELISA absorbance of sera", "setting": "bleed 1Y + 3 (1to100), dilution 800", "value": "0.117 and 0.088"}, {"measurement": "ELISA absorbance of sera", "setting": "bleed 1Y + 3 (1to100), dilution 1,600", "value": "0.063 and 0.046"}, {"measurement": "ELISA absorbance of sera", "setting": "bleed 1Y + 3 (1to100), dilution 3,200", "value": "0.032 and 0.027"}, {"measurement": "ELISA absorbance of sera", "setting": "bleed 1Y + 3 (1to100), dilution 6,400", "value": "0.014 and 0.010"}, {"measurement": "ELISA absorbance of sera", "setting": "bleed 1Y + 3 (1to100), dilution 12,800", "value": "0.010 and 0.006"}, {"measurement": "ELISA absorbance of sera", "setting": "bleed 2Y + 1 (1to100), dilution 100", "value": "1.031 and 0.901"}, {"measurement": "ELISA absorbance of sera", "setting": "bleed 2Y + 1 (1to100), dilution 200", "value": "0.815 and 0.784"}, {"measurement": "ELISA absorbance of sera", "setting": "bleed 2Y + 1 (1to100), dilution 400", "value": "0.601 and 0.591"}, {"measurement": "ELISA absorbance of sera", "setting": "bleed 2Y + 1 (1to100), dilution 800", "value": "0.408 and 0.394"}, {"measurement": "ELISA absorbance of sera", "setting": "bleed 2Y + 1 (1to100), dilution 1,600", "value": "0.273 and 0.203"}, {"measurement": "ELISA absorbance of sera", "setting": "bleed 2Y + 1 (1to100), dilution 3,200", "value": "0.163 and 0.116"}, {"measurement": "ELISA absorbance of sera", "setting": "bleed 2Y + 1 (1to100), dilution 6,400", "value": "0.090 and 0.067"}, {"measurement": "ELISA absorbance of sera", "setting": "bleed 2Y + 1 (1to100), dilution 12,800", "value": "0.049 and 0.031"}, {"measurement": "ELISA absorbance of sera", "setting": "bleed 2Y + 2 (1to100), dilution 100", "value": "1.281 and 1.251"}, {"measurement": "ELISA absorbance of sera", "setting": "bleed 2Y + 2 (1to100), dilution 200", "value": "1.162 and 1.137"}, {"measurement": "ELISA absorbance of sera", "setting": "bleed 2Y + 2 (1to100), dilution 400", "value": "1.033 and 1.019"}, {"measurement": "ELISA absorbance of sera", "setting": "bleed 2Y + 2 (1to100), dilution 800", "value": "0.975 and 0.820"}, {"measurement": "ELISA absorbance of sera", "setting": "bleed 2Y + 2 (1to100), dilution 1,600", "value": "0.691 and 0.602"}, {"measurement": "ELISA absorbance of sera", "setting": "bleed 2Y + 2 (1to100), dilution 3,200", "value": "0.460 and 0.389"}, {"measurement": "ELISA absorbance of sera", "setting": "bleed 2Y + 2 (1to100), dilution 6,400", "value": "0.299 and 0.248"}, {"measurement": "ELISA absorbance of sera", "setting": "bleed 2Y + 3 (1to1k), dilution 100", "value": "0.855 and 0.817"}, {"measurement": "ELISA absorbance of sera", "setting": "bleed 2Y + 3 (1to1k), dilution 200", "value": "0.695 and 0.612"}, {"measurement": "ELISA absorbance of sera", "setting": "bleed 2Y + 3 (1to1k), dilution 400", "value": "0.530 and 0.500"}, {"measurement": "ELISA absorbance of sera", "setting": "bleed 2Y + 3 (1to1k), dilution 800", "value": "0.393 and 0.359"}, {"measurement": "ELISA absorbance of sera", "setting": "bleed 2Y + 3 (1to1k), dilution 1,600", "value": "0.273 and 0.257"}, {"measurement": "ELISA absorbance of sera", "setting": "bleed 2Y + 3 (1to1k), dilution 3,200", "value": "0.155 and 0.146"}, {"measurement": "ELISA absorbance of sera", "setting": "bleed 2Y + 3 (1to1k), dilution 6,400", "value": "0.074 and 0.049"}, {"measurement": "ELISA absorbance of sera", "setting": "bleed 3Y + 1 (1to1k), dilution 100", "value": "0.966 and 0.923"}, {"measurement": "ELISA absorbance of sera", "setting": "bleed 3Y + 1 (1to1k), dilution 200", "value": "0.785 and 0.691"}, {"measurement": "ELISA absorbance of sera", "setting": "bleed 3Y + 1 (1to1k), dilution 400", "value": "0.599 and 0.565"}, {"measurement": "ELISA absorbance of sera", "setting": "bleed 3Y + 1 (1to1k), dilution 800", "value": "0.444 and 0.406"}, {"measurement": "ELISA absorbance of sera", "setting": "bleed 3Y + 1 (1to1k), dilution 1,600", "value": "0.308 and 0.291"}, {"measurement": "ELISA absorbance of sera", "setting": "bleed 3Y + 1 (1to1k), dilution 3,200", "value": "0.175 and 0.165"}, {"measurement": "ELISA absorbance of sera", "setting": "bleed 3Y + 1 (1to1k), dilution 6,400", "value": "0.084 and 0.056"}, {"measurement": "ELISA absorbance of sera", "setting": "bleed 3Y + 2 (1to1k), dilution 100", "value": "1.202 and 1.225"}, {"measurement": "ELISA absorbance of sera", "setting": "bleed 3Y + 2 (1to1k), dilution 200", "value": "0.934 and 0.949"}, {"measurement": "ELISA absorbance of sera", "setting": "bleed 3Y + 2 (1to1k), dilution 400", "value": "0.658 and 0.662"}, {"measurement": "ELISA absorbance of sera", "setting": "bleed 3Y + 2 (1to1k), dilution 800", "value": "0.405 and 0.424"}, {"measurement": "ELISA absorbance of sera", "setting": "bleed 3Y + 2 (1to1k), dilution 1,600", "value": "0.240 and 0.228"}, {"measurement": "ELISA absorbance of sera", "setting": "bleed 3Y + 2 (1to1k), dilution 3,200", "value": "0.151 and 0.130"}, {"measurement": "ELISA absorbance of sera", "setting": "bleed 3Y + 2 (1to1k), dilution 6,400", "value": 0.077}, {"measurement": "ELISA absorbance of sera", "setting": "bleed 3Y + 3 (1to1k), dilution 100", "value": "1.269 and 1.387"}, {"measurement": "ELISA absorbance of sera", "setting": "bleed 3Y + 3 (1to1k), dilution 200", "value": "0.919 and 1.048"}, {"measurement": "ELISA absorbance of sera", "setting": "bleed 3Y + 3 (1to1k), dilution 400", "value": "0.666 and 0.772"}, {"measurement": "ELISA absorbance of sera", "setting": "bleed 3Y + 3 (1to1k), dilution 800", "value": "0.418 and 0.430"}, {"measurement": "ELISA absorbance of sera", "setting": "bleed 3Y + 3 (1to1k), dilution 1,600", "value": "0.246 and 0.257"}, {"measurement": "ELISA absorbance of sera", "setting": "bleed 3Y + 3 (1to1k), dilution 3,200", "value": "0.081 and 0.119"}, {"measurement": "ELISA absorbance of sera", "setting": "bleed 3Y + 3 (1to1k), dilution 6,400", "value": 0.025}]}
